Results published in patent US20120202787A1, “Novel Heteroaryl Imidazoles And Heteroaryl Triazoles As Gamma-Secretase Modulators” (Pfizer Inc., priority 2009, published 2012).

System: γ-secretase (production of amyloid beta protein Aβ (1-42))
Assay: Cell-based γ-secretase assay with ELISA readout (Aβ (1-42) production)
Set-up: species or system human WT-APP overexpressing CHO cells
Conditions: human WT-APP overexpressing CHO cells; Aβ (1-42) ELISA; about 24 hours at 37° C.; free base or salt; read-out: Aβ 42B IC50 (μM) (Geometric Mean of 2-8 Determinations)
Experimental: Cell-Based γ-Secretase Assay with ELISA Readout
The ability of compounds to modulate production of amyloid beta protein Aβ (1-42) was determined using human WT-APP overexpressing CHO cells. Cells were plated at 22,000 cells/100 μL well in 96 well tissue culture treated, clear plates (Falcon) in DMEM/F12 based medium and incubated for 24 hours at 37° C. Compounds for testing were diluted in 100% DMSO to achieve an eleven points, half log, dose response for IC50 determinations. Compounds were added in fresh medium to achieve 1% final DMSO. Appropriate vehicle and inhibitor controls were added to obtain maximum and minimum inhibition values for the assay before the plates were incubated for about 24 hours at 37° C.
Coating of ELISA assay plates was initiated by addition of 50 μL/well of an in-house Aβ (1-42) specific antibody at (4 μg/mL) in 0.1 M NaHCO3 (pH 9.0) into black 384-well Maxisorp® plates (Nunc) and incubated overnight at 4° C. The capture antibody was then aspirated from the ELISA assay plates and 100 μL/well of Blocking Buffer (Dulbecco's PBS, 1.5% BSA (Sigma A7030)) added. Ambient temperature incubation was allowed to proceed for a minimum of two hours before washing 2×100 μL with Wash Buffer (Dulbecco's PBS, 0.05% Tween 20). Assay Buffer (Dulbecco's PBS, 1.0% BSA (Sigma A7030), 0.05% Tween 20) 20 μL/well was then added.
After incubation overnight at 37° C., 5% CO2, 40 μL (in duplicate) of experimental conditioned media were transferred into wells of the blocked ELISA plates containing the capture antibody, followed by overnight incubation at 4° C. Cell toxicity was measured in the corresponding cells after removal of the media for the Aβ (1-42) assay by a colorimetric cell proliferation assay (CellTiter 96® AQueous One Solution Cell Proliferation Assay, Promega) according to the manufacturer's instructions.
After overnight incubation of the ELISA assay plates at 4° C., unbound Aβ peptides were removed thorough (4×100 μL) washes with Wash Buffer. Europium (Eu) labeled (custom labeled, Perkin Elmer) Aβ (1-16) 6e10 Monoclonal Antibody (Covance #SIG-39320 was added, (50 μL /well Eu-6e10 @ 1:5000, 20 uM EDTA) in Assay Buffer. Incubation at ambient temperature for a minimum of 2 hours was followed by (4×100 μL) washes with Wash Buffer, before 50 μL/well of Delfia Enhancement Solution (Perkin Elmer) was added. Following a one hour ambient temperature incubation, the plates were read on an EnVision plate reader (Perkin Elmer) using standard DELFIA TRF settings. Data analysis including inhibitory IC50 determination was performed using nonlinear regression fit analysis (in-house software) and the appropriate plate mean values for the maximum and minimum inhibition controls.

| Structure (SMILES) | IC50 [µM] |
| --- | --- |
| Cc1cn(-c2ccc(C(=O)NCC3(c4cccc(C(F)(F)F)c4)CCOCC3)cn2)cn1 [Example 1, 6-(4-Methyl-1H-imidazol-1-yl)-N-({4-[3-(trifluoromethyl)phenyl]tetrahydro-2H-pyran-4-yl}methyl)nicotinamide] | 13.6 |
| COc1nc(C(=O)NCC2(c3ccccc3)CCCC2)cnc1-n1cnc(C)c1 [Example 2, 6-Methoxy-5-(4-methyl-1H-imidazol-1-yl)-N-[(1-phenylcyclopentyl)methyl]pyrazine-2-carboxamide] | 2.29 |
| COc1nc(C(=O)NCC2(c3ccc(Cl)cc3)CC2)ccc1-n1cnc(C)c1 [Example 3, N-{[1-(4-Chlorophenyl)cyclopropyl]methyl}-6-methoxy-5-(4-methyl-1H-imidazol-1-yl)pyridine-2-carboxamide] | 0.186 |
| COc1nc(C(=O)NCc2cccc(C(F)(F)F)c2)cnc1-n1cnc(C)c1 [Example 4, 6-Methoxy-5-(4-methyl-1H-imidazol-1-yl)-N-[3-(trifluoromethyl)benzyl]pyrazine-2-carboxamide] | 1.75 |
| COc1nc(C(=O)NCC2(c3ccc(F)cc3)CC2)ccc1-n1cnc(C)c1 [Example 5, N-{[1-(4-Fluorophenyl)cyclopropyl]methyl}-6-methoxy-5-(4-methyl-1H-imidazol-1-yl)pyridine-2-carboxamide] | 0.34 |
| COc1nc(C(=O)NCC2(c3ccc(F)cc3)CC2)cnc1-n1cnc(C)c1 [Example 6, N-{[1-(4-Fluorophenyl)cyclopropyl]methyl}-6-methoxy-5-(4-methyl-1H-imidazol-1-yl)pyrazine-2-carboxamide] | 1.3 |
| COc1nc(C(=O)NCC2(c3ccc(Cl)cc3)CC2)cnc1-n1cnc(C)c1 [Example 7, N-{[1-(4-Chlorophenyl)cyclopropyl]methyl}-6-methoxy-5-(4-methyl-1H-imidazol-1-yl)pyrazine-2-carboxamide] | 0.591 |
| COc1nc(C(=O)N2CC[C@H](Oc3ccccc3C(F)(F)F)C2)cnc1-n1cnc(C)c1 [Example 8, 3-methoxy-2-(4-methyl-1H-imidazol-1-yl)-5-({(3S)-3-[2-(trifluoromethyl)-phenoxy]pyrrolidin-1-yl}carbonyl)pyrazine] | 0.535 |
| COc1nc(C(=O)N2CC[C@@H](Oc3ccccc3C(F)(F)F)C2)cnc1-n1cnc(C)c1 [Example 9, 3-methoxy-2-(4-methyl-1H-imidazol-1-yl)-5-({(3R)-3-[2-(trifluoromethyl)-phenoxy]pyrrolidin-1-yl}carbonyl)pyrazine] | 0.643 |
| COc1nc(C(=O)NCC2(c3cccc(C)c3)CCC2)cnc1-n1cnc(C)c1 [Example 10, 6-methoxy-5-(4-methyl-1H-imidazol-1-yl)-N-{[1-(3-methylphenyl)cyclobutyl]-methyl}pyrazine-2-carboxamide] | 0.827 |
| COc1nc(C(=O)NCC2(c3ccc(F)cc3)CCC2)cnc1-n1cnc(C)c1 [Example 11, N-{[1-(4-fluorophenyl)-cyclobutyl]methyl}-6-methoxy-5-(4-methyl-1H-imidazol-1-yl)pyrazine-2-carboxamide] | 1.38 |
| COc1nc(C(=O)NCCc2nc3ccc(Cl)cc3o2)cnc1-n1cnc(C)c1 [Example 12, N-[2-(6-chloro-1,3-benzoxazol-2-yl)ethyl]-6-methoxy-5-(4-methyl-1H-imidazol-1-yl)pyrazine-2-carboxamide] | 1.43 |
| COc1nc(C(=O)NCC(C)(C)c2ccc(F)cc2)cnc1-n1cnc(C)c1 [Example 13, N-[2-(4-fluorophenyl)-2-methylpropyl]-6-methoxy-5-(4-methyl-1H-imidazol-1-yl)pyrazine-2-carboxamide] | 1.36 |
| COc1nc(C(=O)NCC2(c3ccc(Cl)cc3)CCCC2)cnc1-n1cnc(C)c1 [Example 14, N-{[1-(4-chlorophenyl)cyclopentyl]methyl}-6-methoxy-5-(4-methyl-1H-imidazol-1-yl)pyrazine-2-carboxamide] | 1.45 |
| COc1nc(C(=O)NC(C)(C)c2cccc(Cl)c2)cnc1-n1cnc(C)c1 [Example 15, N-[1-(3-chlorophenyl)-1-methylethyl]-6-methoxy-5-(4-methyl-1H-imidazol-1-yl)pyrazine-2-carboxamide] | 1.82 |
| COc1nc(C(=O)NCc2cnc(-c3ccccc3)s2)cnc1-n1cnc(C)c1 [Example 16, 6-methoxy-5-(4-methyl-1H-imidazol-1-yl)-N-[(2-phenyl-1,3-thiazol-5-yl)methyl]pyrazine-2-carboxamide] | 1.94 |
| COc1nc(C(=O)NC(C)(C)c2ccc(F)cc2)cnc1-n1cnc(C)c1 [Example 17, N-[1-(4-fluorophenyl)-1-methylethyl]-6-methoxy-5-(4-methyl-1H-imidazol-1-yl)pyrazine-2-carboxamide] | 2.41 |
| COc1nc(C(=O)NCc2ccc(OC(F)(F)F)cc2)cnc1-n1cnc(C)c1 [Example 18, 6-methoxy-5-(4-methyl-1H-imidazol-1-yl)-N-[4-(trifluoromethoxy)benzyl]-pyrazine-2-carboxamide] | 5.43 |
| COc1nc(C(=O)NCC2CCCC2)cnc1-n1cnc(C)c1 [Example 19, N-(cyclopentylmethyl)-6-methoxy-5-(4-methyl-1H-imidazol-1-yl)pyrazine-2-carboxamide] | 5.77 |
| COc1cc(C(=O)N2CC[C@H](Oc3ccccc3C(F)(F)F)C2)ncc1-n1cnc(C)c1 [Example 20, 4-methoxy-5-(4-methyl-1H-imidazol-1-yl)-2-({(3S)-3-[2-(trifluoromethyl)-phenoxy]pyrrolidin-1-yl}carbonyl)pyridine] | 5.33 |
| COc1cc(C(=O)NCCc2c(C)[nH]c3c(Cl)cc(Cl)cc23)ncc1-n1cnc(C)c1 [Example 21, N-[2-(5,7-dichloro-2-methyl-1H-indol-3-yl)ethyl]-4-methoxy-5-(4-methyl-1H-imidazol-1-yl)pyridine-2-carboxamide] | 6.25 |
| COc1cc(C(=O)NCc2sc3c(F)ccc(F)c3c2Cl)ncc1-n1cnc(C)c1 [Example 22, N-[(3-chloro-4,7-difluoro-1-benzothien-2-yl)methyl]-4-methoxy-5-(4-methyl-1H-imidazol-1-yl)pyridine-2-carboxamide] | > 15.8 |
| COc1cc(C(=O)NCC2(c3ccc(C(F)(F)F)cc3)CCOCC2)ncc1-n1cnc(C)c1 [Example 23, 4-methoxy-5-(4-methyl-1H-imidazol-1-yl)-N-({4-[4-(trifluoromethyl)phenyl]-tetrahydro-2H-pyran-4-yl}methyl)pyridine-2-carboxamide] | 17.2 |
| COc1cc(C(=O)NCCc2c[nH]c3ccc(Cl)cc23)ncc1-n1cnc(C)c1 [Example 24, N-[2-(5-chloro-1H-indol-3-yl)ethyl]-4-methoxy-5-(4-methyl-1H-imidazol-1-yl)pyridine-2-carboxamide] | 18 |
| COc1nc(C(=O)NCC2(c3ccccc3)CCCC2)ccc1-n1cnc(C)c1 [Example 25, 6-methoxy-5-(4-methyl-1H-imidazol-1-yl)-N-[(1-phenylcycloentyl)methyl] pyridine-2-carboxamide] | 0.316 |
| COc1nc(C(=O)NCCc2nc3ccc(Cl)cc3o2)ccc1-n1cnc(C)c1 [Example 26, N-[2-(6-chloro-1,3-benzoxazol-2-yl)ethyl]-6-methoxy-5-(4-methyl-1H-imidazol-1-yl)pyridine-2-carboxamide] | 0.524 |
| COc1nc(C(=O)NCC2(c3cccc(C)c3)CCC2)ccc1-n1cnc(C)c1 [Example 27, 6-methoxy-5-(4-methyl-1H-imidazol-1-yl)-N-{[1-(3-methylphenyl)cyclobutyl]-methyl}pyridine-2-carboxamide] | 0.438 |
| COc1nc(C(=O)NCC2(c3ccc(F)cc3)CCC2)ccc1-n1cnc(C)c1 [Example 28, N-{[1-(4-fluorophenyl)-cyclobutyl]methyl}-6-methoxy-5-(4-methyl-1H-imidazol-1-yl)pyridine-2-carboxamide] | 0.314 |
| COc1nc(C(=O)NCC(C)(C)c2ccc(F)cc2)ccc1-n1cnc(C)c1 [Example 29, N-[2-(4-fluorophenyl)-2-methylpropyl]-6-methoxy-5-(4-methyl-1H-imidazol-1-yl)pyridine-2-carboxamide] | 0.502 |
| COc1nc(C(=O)NCc2cccc(C(F)(F)F)c2)ccc1-n1cnc(C)c1 [Example 30, 6-methoxy-5-(4-methyl-1H-imidazol-1-yl)-N-[3-(trifluoromethyl)benzyl]-pyridine-2-carboxamide] | 0.502 |
